{"source": "ChEMBL document CHEMBL1154508", "about": "“Discovery of GSK345931A: An EP(1) receptor antagonist with efficacy in preclinical models of inflammatory pain” (Bioorg Med Chem Lett, 2009)", "key": {"[1]": {"experiment": "Ratio of drug level in brain to blood in complete Freund's adjuvant-induced rat inflammatory pain model at 1 mg/kg, po after 1 hr", "assay_type": "ADME, organism-based", "set-up": "dose 1 mg/kg, route oral"}, "[2]": {"experiment": "Ratio of drug level in brain to blood in complete Freund's adjuvant-induced rat inflammatory pain model 3 mg/kg, po after 1 hr", "assay_type": "ADME, organism-based", "set-up": "dose 3 mg/kg, route oral"}, "[3]": {"experiment": "Drug level in blood of sub-chronic rat joint pain efficacy model satellite animal group at 5 mg/kg bid measured on day 1 after 1 hr post dose", "assay_type": "ADME, organism-based", "set-up": "dose 5 mg/kg", "settings": "read-out: Drug uptake"}, "[4]": {"biological_target": "T1, Thromboxane A2 receptor (Homo sapiens, UniProt P21731)", "T1 sequence (P21731 whole entry)": "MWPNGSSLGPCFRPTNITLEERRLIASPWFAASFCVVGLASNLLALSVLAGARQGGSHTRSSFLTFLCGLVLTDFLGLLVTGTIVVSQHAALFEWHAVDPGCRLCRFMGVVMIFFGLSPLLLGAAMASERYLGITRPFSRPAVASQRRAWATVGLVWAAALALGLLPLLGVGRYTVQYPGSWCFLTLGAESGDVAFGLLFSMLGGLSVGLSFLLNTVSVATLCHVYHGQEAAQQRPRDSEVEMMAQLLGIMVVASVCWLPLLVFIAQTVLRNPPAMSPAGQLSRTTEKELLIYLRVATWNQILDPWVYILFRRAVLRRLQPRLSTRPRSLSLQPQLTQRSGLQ", "experiment": "Activity at TP receptor by FLIPR method"}, "[5]": {"experiment": "Lipophilicity, log D at pH 7.4", "assay_type": "physicochemical", "settings": "buffer"}, "[6]": {"biological_target": "T1, Thromboxane A2 receptor", "experiment": "Binding affinity to TP receptor"}, "[7]": {"test_system": "Blood", "experiment": "Fraction unbound in rat blood", "assay_type": "ADME, tissue-based"}, "[8]": {"experiment": "Partition ratio of fraction unbound in rat brain to blood", "assay_type": "ADME, tissue-based"}, "[9]": {"experiment": "Solubility in fed state simulated intestinal fluid after 2 hrs", "assay_type": "physicochemical"}, "[10]": {"experiment": "Solubility in fed state simulated intestinal fluid after 24 hrs", "assay_type": "physicochemical"}, "[11]": {"experiment": "Half life in cynomolgus monkey at 1 mg/kg, iv", "assay_type": "ADME, organism-based, Macaca fascicularis", "set-up": "dose 1 mg/kg, route intravenous", "settings": "in vivo"}, "[12]": {"experiment": "Oral bioavailability in cynomolgus monkey at 3 mg/kg", "assay_type": "ADME, organism-based, Macaca fascicularis", "settings": "in vivo"}, "[13]": {"experiment": "Metabolic stability assessed as intrinsic clearance per gram of monkey liver microsomes", "assay_type": "ADME, Macaca mulatta, Microsome", "settings": "rhesus monkey"}, "[14]": {"test_system": "Liver microsomes", "experiment": "Metabolic stability assessed as intrinsic clearance per gram of human liver microsomes", "assay_type": "ADME, Microsome"}, "[15]": {"experiment": "Drug level in mouse blood at 3 mg/kg, po after 0.5 hrs", "assay_type": "ADME, organism-based", "set-up": "dose 3 mg/kg, route oral", "settings": "read-out: Drug uptake"}, "[16]": {"experiment": "Ratio of drug level in brain to blood in mouse at 3 mg/kg, po after 0.5 hr", "assay_type": "ADME, organism-based", "set-up": "dose 3 mg/kg, route oral"}, "[17]": {"experiment": "Drug level in rat brain at 0.28 mg/kg/hr, iv for 18 hrs", "assay_type": "ADME, organism-based", "set-up": "route intravenous", "settings": "read-out: Drug uptake"}, "[18]": {"organism": "Rattus norvegicus", "experiment": "Antiinflammatory activity against complete Freund's adjuvant-induced hypersensitivity in rat inflammatory pain model", "assay_type": "functional"}, "[19]": {"experiment": "Drug level in blood of complete Freund's adjuvant-induced rat inflammatory pain model at 1 mg/kg, po after 1 hr", "assay_type": "ADME, organism-based", "set-up": "dose 1 mg/kg, route oral", "settings": "read-out: Drug uptake"}, "[20]": {"experiment": "Drug level in blood of complete Freund's adjuvant-induced rat inflammatory pain model at 3 mg/kg, po after 1 hr", "assay_type": "ADME, organism-based", "set-up": "dose 3 mg/kg, route oral", "settings": "read-out: Drug uptake"}, "[21]": {"experiment": "Drug level in blood of sub-chronic rat joint pain efficacy model treatment group at 20 mg/kg bid measured on day 5 after 1 hr post dose", "assay_type": "ADME, organism-based", "set-up": "dose 20 mg/kg", "settings": "read-out: Drug uptake"}, "[22]": {"biological_target": "T2, Peroxisome proliferator-activated receptor gamma (Homo sapiens, UniProt P37231)", "T2 sequence (P37231 whole entry)": "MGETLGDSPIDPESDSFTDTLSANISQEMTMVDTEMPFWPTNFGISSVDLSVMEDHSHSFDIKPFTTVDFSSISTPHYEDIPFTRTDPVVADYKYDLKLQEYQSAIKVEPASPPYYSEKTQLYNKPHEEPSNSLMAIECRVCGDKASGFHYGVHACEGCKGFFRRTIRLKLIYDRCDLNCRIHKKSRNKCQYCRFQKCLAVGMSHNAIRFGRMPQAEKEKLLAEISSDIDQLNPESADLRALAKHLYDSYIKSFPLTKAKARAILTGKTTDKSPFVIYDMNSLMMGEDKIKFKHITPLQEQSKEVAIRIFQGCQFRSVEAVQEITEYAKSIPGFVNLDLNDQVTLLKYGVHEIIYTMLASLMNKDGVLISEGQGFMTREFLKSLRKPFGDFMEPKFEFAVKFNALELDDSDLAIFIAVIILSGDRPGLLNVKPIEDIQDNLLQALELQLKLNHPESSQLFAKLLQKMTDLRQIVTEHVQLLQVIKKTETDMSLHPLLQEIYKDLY", "experiment": "Binding affinity to PPARgamma"}, "[23]": {"biological_target": "T3, Peroxisome proliferator-activated receptor alpha (Homo sapiens, UniProt Q07869)", "T3 sequence (Q07869 whole entry)": "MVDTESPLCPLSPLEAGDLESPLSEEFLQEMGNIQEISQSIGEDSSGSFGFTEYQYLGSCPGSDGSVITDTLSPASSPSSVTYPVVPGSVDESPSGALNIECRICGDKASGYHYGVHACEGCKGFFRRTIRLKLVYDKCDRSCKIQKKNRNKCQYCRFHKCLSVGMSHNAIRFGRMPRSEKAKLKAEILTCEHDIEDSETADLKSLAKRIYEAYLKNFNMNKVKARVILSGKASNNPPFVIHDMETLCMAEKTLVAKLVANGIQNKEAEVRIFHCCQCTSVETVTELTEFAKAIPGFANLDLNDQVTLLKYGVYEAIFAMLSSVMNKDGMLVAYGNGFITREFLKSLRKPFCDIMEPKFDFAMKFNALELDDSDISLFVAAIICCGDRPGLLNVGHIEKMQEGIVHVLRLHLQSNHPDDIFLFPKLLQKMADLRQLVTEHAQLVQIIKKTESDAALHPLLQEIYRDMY", "experiment": "Binding affinity to PPARalpha"}, "[24]": {"biological_target": "T4, Peroxisome proliferator-activated receptor delta (Homo sapiens, UniProt Q03181)", "T4 sequence (Q03181 whole entry)": "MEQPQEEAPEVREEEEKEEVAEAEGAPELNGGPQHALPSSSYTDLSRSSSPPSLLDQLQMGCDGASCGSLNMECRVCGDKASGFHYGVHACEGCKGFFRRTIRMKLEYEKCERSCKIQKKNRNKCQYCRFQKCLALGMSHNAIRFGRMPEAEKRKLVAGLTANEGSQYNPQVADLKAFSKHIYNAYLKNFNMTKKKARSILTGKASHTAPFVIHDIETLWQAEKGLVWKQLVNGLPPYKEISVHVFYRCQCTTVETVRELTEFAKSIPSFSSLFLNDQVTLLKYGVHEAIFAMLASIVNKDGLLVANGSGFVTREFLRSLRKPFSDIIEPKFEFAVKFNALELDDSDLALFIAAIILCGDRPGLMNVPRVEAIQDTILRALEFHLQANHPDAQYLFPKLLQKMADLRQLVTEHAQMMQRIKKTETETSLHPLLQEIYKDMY", "experiment": "Binding affinity PPARdelta"}, "[25]": {"experiment": "Fraction unbound in rat brain"}}, "data": [{"smiles": "CC(C)COc1ccc(Cl)cc1-c1ccccc1-c1cccc(C(=O)[O-])n1.[Na+]", "values": [{"measurement": "Kp at 1 h", "setting": "[1]", "result": 0.27}, {"measurement": "Kp at 1 h", "setting": "[2]", "result": 0.72}, {"measurement": "concentration at 1 h", "setting": "[3]", "result": 5270, "unit": "nM"}, {"measurement": "IC50", "setting": "[4]", "result": 1.58, "unit": "µM"}, {"measurement": "logD", "setting": "[5]", "result": 1.9}, {"measurement": "Ki", "setting": "[6]", "result": 0.316, "unit": "µM"}, {"measurement": "Fu", "setting": "[7]", "result": 0.5, "unit": "%"}, {"measurement": "Kbb", "setting": "[8]", "result": 0.93}, {"measurement": "solubility at 2 h", "setting": "[9]", "result": 1220, "unit": "µg/mL"}, {"measurement": "solubility at 24 h", "setting": "[10]", "result": 1140, "unit": "µg/mL"}, {"measurement": "half-life", "setting": "[11]", "result": 48, "unit": "min"}, {"measurement": "bioavailability", "setting": "[12]", "result": 34, "unit": "%"}, {"measurement": "CL", "setting": "[13]", "result": 8, "unit": "mL/min/g"}, {"measurement": "CL", "setting": "[14]", "result": 1.9, "unit": "mL/min/g"}, {"measurement": "concentration at 0.5 h", "setting": "[15]", "result": 1120, "unit": "nM"}, {"measurement": "Kp at 0.5 h", "setting": "[16]", "result": 0.24}, {"measurement": "concentration at 18 h", "setting": "[17]", "result": 550, "unit": "nM"}, {"measurement": "ED50", "setting": "[18]", "result": 1.6, "unit": "mg/kg"}, {"measurement": "concentration at 1 h", "setting": "[19]", "result": 948, "unit": "nM"}, {"measurement": "concentration at 1 h", "setting": "[20]", "result": 3330, "unit": "nM"}, {"measurement": "concentration at 1 h", "setting": "[21]", "result": 5530, "unit": "nM"}, {"measurement": "Ki", "setting": "[22]", "result": 12.6, "unit": "µM"}, {"measurement": "Ki", "setting": "[23]", "result": "> 20", "unit": "µM"}, {"measurement": "Ki", "setting": "[24]", "result": "> 20", "unit": "µM"}, {"measurement": "Fu", "setting": "[25]", "result": 0.53, "unit": "%"}]}]}
